Laboratory results from paper PMC6894422 (Journal of the American Chemical Society, 2019).

Legend:
COLO-699 NSCLC cells = assay: colony formation in soft agar; type: cell-based; details: 14 days
[1] = system: kinome (222 kinases quantified) in NOMO-1 human AML cells; assay: MIB-MS kinome profiling; type: cell-based; details: NOMO-1 cells, 100 nM, one hour
NOMO-1 AML cells [2] = assay: colony formation in soft agar; type: cell-based, human; details: NOMO-1, 300 nM
NOMO-1 AML cells [3] = assay: cell death by PoPro-1-iodide/propidium iodide flow cytometry; details: NOMO-1, 300 nM, 72 hours
A549 NSCLC cells = assay: colony formation in soft agar; type: cell-based; details: A549, 300 nM, 14 days
[4] = system: AXL phosphorylation in A549 NSCLC cells; assay: pAXL assay
OCI-AML5 AML cells = assay: colony formation in soft agar; type: cell-based
[5] = system: MERTK phosphorylation in 697 ALL cells; assay: pMERTK assay
[6] = pharmacokinetic study in mice; type: in vivo
Kasumi-1 AML cells = assay: cell death by PoPro-1-iodide/propidium iodide flow cytometry; type: cell-based; details: Kasumi-1, 300 nM, 72 hours

CC(C)C(=O)Nc1ccnc(C#Cc2ccc(Nc3ncc(-c4ccccn4)c(NC4CCC(O)CC4)n3)cc2)c1 (centres unmarked) [Compound 10]
reduction in colony number (COLO-699 NSCLC cells; COLO-699, 50 nM): 70% | colony formation (COLO-699 NSCLC cells; COLO-699, 300 nM): complete abrogation of colony formation | number of kinases with lower enrichment on the beads compared to DMSO control ([1]; 222 kinases quantified): 27 kinases | number of kinases significantly decreased ([1]; p < 0.05 and log2 ratio 10/control ≥ 2): 8 kinases | reduction in colony number (NOMO-1 AML cells [2]): 60–75% | tumor cell death (% of cells) (NOMO-1 AML cells [3]): 41% | reduction in colony number (A549 NSCLC cells): 60–75% | inhibition of pAXL at higher concentrations ([4]; higher concentrations of 10): Near complete inhibition | IC50 ([4]; read-out: IC50 (AXL phosphorylation), A549 NSCLC cells, 1 hour, 95% confidence interval = 18–57 nM): 32 nM | reduction in colony number (OCI-AML5 AML cells; OCI-AML5, 50 nM): 70% | colony formation (OCI-AML5 AML cells; OCI-AML5, 300 nM): complete abrogation of colony formation | inhibition of pMERTK at higher concentrations ([5]; higher concentrations of 10): Near complete inhibition | IC50 ([5]; read-out: IC50 (MERTK phosphorylation), 697 ALL cells, 1 hour, 95% confidence interval = 16–52 nM): 28 nM | oral bioavailability ([6]; p.o.): weak oral bioavailability | Cmax ([6]; plasma, via i.p. route): 435 ng/mL | T1/2 ([6]; plasma, via i.p. route): 4.97 h | tumor cell death (% of cells) (Kasumi-1 AML cells): 67%
